Consider 30 compounds from the supplement of paper PMC11616607.

The first assay deals with OVCAR5. The assay is described as follows: drug sensitivity score (DSS) from 5-point dose-response viability curve (DSS (area-under-curve based score)); higher = more sensitive (stronger growth inhibition or killing); extreme values may be limits of the assay. As to conditions: exposure time: 72 h; concentration range: 5 concentrations over 10,000-fold range. The procedure, abridged:
(§1)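 Viability of ovarian cancer and normal ovarian cell lines was read by CellTiter-Glo luminescence after 3 days at 37°C and 5% CO2 in 384-well plates holding 1,500 cells per well. Drugs had been dispensed in DMSO or water with an Echo 550 at five concentrations over a 10,000-fold range. Using Breeze software, a drug sensitivity score was assigned per cell line and drug, higher scores meaning more sensitive, and zero means no response.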
On to `C[C@H]1C[C@@H]2[C@H]([C@@H](O)C[C@@]3(C)[C@H]2CC[C@]3(O)C(=O)CO)[C@@]2(C)C=CC(=O)C=C12` [Methylprednisolone], for which the drug sensitivity score stood at 0.
`CO[C@@H]1[C@H](N(C)C(=O)c2ccccc2)C[C@H]2O[C@]1(C)n1c3ccccc3c3c4c(c5c6ccccc6n2c5c31)C(=O)NC4` [Midostaurin] displayed a drug sensitivity score of 5.3.
Same read-out and setting: in the case of `CNC(=O)c1nn(C)c2c1C(C)(C)Cc1cnc(Nc3ccc(N4CCN(C)CC4)cc3)nc1-2` [Milciclib] it was 9.4; in that of `CCCCCCCCCCCCCCCCOP(=O)([O-])OCC[N+](C)(C)C` [Miltefosine], 9.1; in that of `CO[C@@]12[C@H](COC(N)=O)C3=C(C(=O)C(C)=C(N)C3=O)N1C[C@@H]1N[C@@H]12` [Mitomycin C], 0.
Still for that read-out and setting: as for `Clc1ccc(C(c2ccccc2Cl)C(Cl)Cl)cc1` (stereo not given) [Mitotane], the figure is 0.
The same measure, in the same setting: as for `O=C1c2c(O)ccc(O)c2C(=O)c2c(NCCNCCO)ccc(NCCNCCO)c21` [Mitoxantrone], the figure is 6.1; as for `CCS(=O)(=O)Nc1ccc(Oc2ccc(F)cc2F)c(-c2cn(C)c(=O)c3[nH]ccc23)c1` [Mivebresib], 20.2.
As to `Nc1ccccc1NC(=O)c1ccc(CNc2nccc(-c3cccnc3)n2)cc1` [Mocetinostat], the drug sensitivity score stood at 13.7.
Turning to `CCNC(=O)C[C@@H]1N=C(c2ccc(Cl)cc2)c2cc(OC)ccc2-n2c(C)nnc21` [Molibresib], the drug sensitivity score is 7.8.
Same read-out and setting: as for `N#CCNC(=O)c1ccc(-c2ccnc(Nc3ccc(N4CCOCC4)cc3)n2)cc1` [Momelotinib], the figure is 3.3.
On the same count and under the same terms, in the case of `CC1(C)CNc2cc(NC(=O)c3cccnc3NCc3ccncc3)ccc21` [Motesanib] it was 0; in that of `CCCN(CCC)C(=O)C1=Cc2ccc(-c3ccc(C(=O)N4CCCC4)cc3)cc2N=C(N)C1` [Motolimod], 0.5; in that of `FC(F)(F)c1ccc(/C=C/c2nc(COc3ccc(CCCCn4ccnn4)cc3)co2)cc1` [Mubritinib], 0.9.
On the same count and under the same terms, as for `Cc1cc(OCc2nnc(SC3CCCC3)n2-c2cccnc2)ccc1-c1ccc(S(C)(=O)=O)cc1` [NMS-873], the figure is 8.9; as for `COc1ccc(-c2ccc3ncc4c(c3c2)n(-c2ccc(N3CCNCC3)c(C(F)(F)F)c2)c(=O)n4C)cn1` [NVP-BGT226], 14.6.
`Cc1ccc(C(=O)Nc2cccc(C(F)(F)F)c2)cc1Nc1nc(-c2cccnc2)nc2c1cnn2C` [NVP-BHG712] had a drug sensitivity score of 8.8.
Same read-out and setting: as for `COc1cc2c(cc1OC(C)C)[C@H](c1ccc(Cl)cc1)N(c1ccc(N(C)C[C@H]3CC[C@H](N4CCN(C)C(=O)C4)CC3)cc1)C(=O)C2` [NVP-CGM097], the figure is 7.2.
`CN[C@@H](C)C(=O)N[C@H](C(=O)N1CCC[C@H]1c1nc(C(=O)c2ccc(F)cc2)cs1)C1CCCCC1` [NVP-LCL161] had a drug sensitivity score of 4.1.
`Cn1c(Nc2ccc(C(F)(F)F)cc2)nc2cc(Oc3ccnc(-c4ncc(C(F)(F)F)[nH]4)c3)ccc21` [NVP-RAF265] gave a drug sensitivity score of 0.4.
Take `CC(=O)c1cc2c(o1)C(=O)c1ccccc1C2=O` [Napabucasin]: the drug sensitivity score was found to be 21.3.
The same measure, in the same setting: as for `CC1(C)CCC(c2ccc(Cl)cc2)=C(CN2CCN(c3ccc(C(=O)NS(=O)(=O)c4ccc(N[C@H](CCN5CCOCC5)CSc5ccccc5)c(S(=O)(=O)C(F)(F)F)c4)cc3)CC2)C1` [Navitoclax], the figure is 0.9; as for `CN1C(=O)N[C@H](Cc2c[nH]c3c(Cl)cccc23)C1=O` [Necrostatin 2], 0; as for `O=c1ncn2nc(Sc3ccc(F)cc3F)ccc2c1-c1c(Cl)cccc1Cl` [Neflamapimod], 0.8.
Consider `COc1nc(N)nc2c1ncn2[C@@H]1O[C@H](CO)[C@@H](O)[C@@H]1O` [Nelarabine], for which the drug sensitivity score stood at 0.
On the same count and under the same terms, in the case of `CCOc1cc2ncc(C#N)c(Nc3ccc(OCc4ccccn4)c(Cl)c3)c2cc1NC(=O)/C=C/CN(C)C` [Neratinib] it was 2.9.
Still for that read-out and setting: in the case of `Cc1cn(-c2cc(NC(=O)c3ccc(C)c(Nc4nccc(-c5cccnc5)n4)c3)cc(C(F)(F)F)c2)cn1` [Nilotinib] it was 2; in that of `CC1(C)NC(=O)N(c2ccc([N+](=O)[O-])c(C(F)(F)F)c2)C1=O` [Nilutamide], 0.1.
Take `COC(=O)c1ccc2c(c1)NC(=O)/C2=C(\Nc1ccc(N(C)C(=O)CN2CCN(C)CC2)cc1)c1ccccc1` [Nintedanib]: the drug sensitivity score was found to be 7.9.
Same read-out and setting: as for `NC(=O)c1cccc2cn(-c3ccc([C@@H]4CCCNC4)cc3)nc12` [Niraparib], the figure is 2.6.

In the next assay the test system is OVCAR8. The description is as above. The conditions noted are these: exposure time: 72 h; concentration range: 5 concentrations over 10,000-fold range. Put shortly:
as §1
As for `C[C@H]1C[C@@H]2[C@H]([C@@H](O)C[C@@]3(C)[C@H]2CC[C@]3(O)C(=O)CO)[C@@]2(C)C=CC(=O)C=C12` [Methylprednisolone], the drug sensitivity score was found to be 0.2.
On the same count and under the same terms, as for `CO[C@@H]1[C@H](N(C)C(=O)c2ccccc2)C[C@H]2O[C@]1(C)n1c3ccccc3c3c4c(c5c6ccccc6n2c5c31)C(=O)NC4` [Midostaurin], the figure is 7; as for `CNC(=O)c1nn(C)c2c1C(C)(C)Cc1cnc(Nc3ccc(N4CCN(C)CC4)cc3)nc1-2` [Milciclib], 6.2.
The same measure, in the same setting: as for `CCCCCCCCCCCCCCCCOP(=O)([O-])OCC[N+](C)(C)C` [Miltefosine], the figure is 5; as for `CO[C@@]12[C@H](COC(N)=O)C3=C(C(=O)C(C)=C(N)C3=O)N1C[C@@H]1N[C@@H]12` [Mitomycin C], 0; as for `Clc1ccc(C(c2ccccc2Cl)C(Cl)Cl)cc1` (stereo not given) [Mitotane], 0.
Still for that read-out and setting: as for `O=C1c2c(O)ccc(O)c2C(=O)c2c(NCCNCCO)ccc(NCCNCCO)c21` [Mitoxantrone], the figure is 9.2.
As to `CCS(=O)(=O)Nc1ccc(Oc2ccc(F)cc2F)c(-c2cn(C)c(=O)c3[nH]ccc23)c1` [Mivebresib], the drug sensitivity score was 24.7.
The same measure, in the same setting: in the case of `Nc1ccccc1NC(=O)c1ccc(CNc2nccc(-c3cccnc3)n2)cc1` [Mocetinostat] it was 13.
`CCNC(=O)C[C@@H]1N=C(c2ccc(Cl)cc2)c2cc(OC)ccc2-n2c(C)nnc21` [Molibresib] yielded a drug sensitivity score of 5.7.
Still for that read-out and setting: in the case of `N#CCNC(=O)c1ccc(-c2ccnc(Nc3ccc(N4CCOCC4)cc3)n2)cc1` [Momelotinib] it was 4.8; in that of `CC1(C)CNc2cc(NC(=O)c3cccnc3NCc3ccncc3)ccc21` [Motesanib], 0; in that of `CCCN(CCC)C(=O)C1=Cc2ccc(-c3ccc(C(=O)N4CCCC4)cc3)cc2N=C(N)C1` [Motolimod], 0.8.
The same measure, in the same setting: as for `FC(F)(F)c1ccc(/C=C/c2nc(COc3ccc(CCCCn4ccnn4)cc3)co2)cc1` [Mubritinib], the figure is 16.7; as for `Cc1cc(OCc2nnc(SC3CCCC3)n2-c2cccnc2)ccc1-c1ccc(S(C)(=O)=O)cc1` [NMS-873], 19.9.
